Source: US20130317029A1 (PORTOLA PHARMACEUTICALS, INC., priority 2010, published 2013)

These molecules were tested against T1, full length active recombinant SYK enzyme (Homo sapiens, UniProt P43405) (assay: Inhibition of Syk tyrosine phosphorylation activity (LANCE TR-FRET kinase assay)).
T1 construct: full length active recombinant SYK enzyme (Millipore, Calif.); purchased Millipore
Type: biochemical
Description: This example illustrates methods for evaluating the compounds of the invention, along with results obtained for such assays. The in vitro and in vivo human Syk activities of the inventive compounds can be determined by various procedures known in the art, such as a test for their ability to inhibit the activity of human plasma Syk. […] The IC50 value is the concentration (in nM) of the compound required to provide 50% inhibition of human Syk proteolytic activity.
Potency of candidate molecules for inhibiting Syk tyrosine phosphorylation activity is assessed by measuring the ability of a test compound to inhibit Syk-mediated tyrosine phosphorylation of a Syk-specific substrate.
SYK tyrosine phosphorylation activity is measured using the LANCE™ Technology developed by Perkin Elmer Life and Analytical Sciences (Boston, Mass.). LANCE™ refers to homogeneous time resolved fluorometry applications using techniques such as time-resolved fluorescence resonance energy transfer assay (TR-FRET) (see generally for procedures in Perkin Elmer Application Note—How to Optimize a Tyrosine Kinase Assay Using Time Resolved Fluorescence-Based LANCE Detection, wwww.perkinelmer.com/lifesciences). The assay principle involves detection of a phosphorylated substrate using energy transfer from a phosphospecific europium-labeled antibody to streptavidin-allophycocyanin as an acceptor.
To test the ability of candidate molecules to inhibit SYK tyrosine phosphorylation activity, molecules are reconstituted in 30% DMSO and serially diluted 1:3 with the final dilution containing DMSO in the absence of the candidate molecule. The final DMSO concentration in the assay is 3%. Kinase assays are performed as a two part reaction. The first reaction is a kinase reaction and which comprises of a candidate molecule, full length active recombinant SYK enzyme (Millipore, Calif.) and biotin-labeled SYK-specific substrate biotin-[…]-OH. The second reaction involves termination of the kinase reaction and the simultaneous addition of the detection reagents-europium-labeled anti-phosphotyrosine reagent (Eu-W1024-PY100, Perkin Elmer, Boston, Mass.) and Streptavidin-Allophycocyanin detection reagent (SA-APC, Prozyme, Calif.). The kinase reaction is performed in a black U-bottom 96-well microtitre plate. The final reaction volume is 50 μL and contains a final concentration of 1 nM active SYK enzyme, 550 nM SYK-substrate, and 100 μM ATP diluted in a buffer containing 50 mM Tris pH 7.5, 5 mM MgCl2, and 1 mM DTT. The reaction is allowed to proceed for 1 hour at room temperature. The quench buffer contains 100 mM Tris pH 7.5, 300 mM NaCl2, 20 mM EDTA, 0.02% Brij35, and 0.5% BSA. The detection reagents are added to the reaction mixture at the following dilutions-1:500 for Eu-W1024-PY100 and 1:250 for SA-APC. The kinase reaction is terminated by the addition of 50 μL quench buffer containing the detection reagents. The detection is allowed to proceed for 1 hr at room temperature. Detection of the phosphorlated substrate in the absence and presence of inhibitors is measured in the TR-FRET instrument, Analyst HT (Molecular Probes, Sunnyvale, Calif.) and the condition for measurements are set up using CriterionHost Release 2.0 (Molecular Probes, Sunnyvale, Calif.). The settings used are a follows: excitation 360 nm, emission 665-7.5 nm, beam splitter 350 nm 50/50, flash 100 pulses, delay 60 us, integration 400 us, z-height 2 mm. Inhibition of SYK-tyrosine kinase activity is calculated as the maximum response observed in the presence of inhibitor, compared to that in the absence of inhibitor. IC50s were derived by non-linear regression analysis.

Compound | IC50 [µM]
NC(=O)c1c(NC2CC2)nc(Nc2ccc(S(N)(=O)=O)cc2)[nH]c1=O [Example 44, 4-(cyclopropylamino)-6-oxo-2-(4-sulfamoylphenylamino)-1,6-dihydropyrimidine-5-carboxamide] | > 1
NC(=O)c1c(NC2CCC2)nc(Nc2ccc(S(N)(=O)=O)cc2)[nH]c1=O [Example 45, 4-(cyclobutylamino)-6-oxo-2-(4-sulfamoylphenylamino)-1,6-dihydropyrimidine-5-carboxamide] | > 1
CC(=O)N1CCN(c2ccc(Nc3nc(Nc4ccc(N5CCN(C(C)=O)CC5)cc4)c(C(N)=O)c(=O)[nH]3)cc2)CC1 [Example 46, 2,4-bis(4-(4-acetylpiperazin-1-yl)phenylamino)-6-oxo-1,6-dihydropyrimidine-5-carboxamide] | > 1
CC(=O)N1CCN(c2ccc(Nc3nc(NC4CCC4)c(C(N)=O)c(=O)[nH]3)cc2)CC1 [Example 47, 2-(4-(4-acetylpiperazin-1-yl)phenylamino)-4-(cyclobutylamino)-6-oxo-1,6-dihydropyrimidine-5-carboxamide] | > 1
NC(=O)c1c(O)nc(NC2CCCCC2N)nc1NC1CC1 (stereo not drawn) [Example 48, 2-(2-aminocyclohexylamino)-4-(cyclopropylamino)-6-hydroxypyrimidine-5-carboxamide] | > 1
CCNc1nc(Nc2cccc(C)c2)c(C(N)=O)c(OCCCN)n1 [Example 52, 4-(m-toluidino)-6-(3-aminopropoxy)-2-(ethylamino)pyrimidine-5-carboxamide] | > 1
Cc1cccc(Nc2nc(NC[C@H](C)N)nc(OCCO)c2C(N)=O)c1 [Example 53, (S)-4-(m-toluidino)-2-(2-aminopropylamino)-6-(2-hydroxyethoxy)pyrimidine-5-carboxamide] | > 1
Cc1cc(C)cc(Nc2nc(NC[C@H](C)N)[nH]c(=O)c2C(N)=O)c1 [Example 54, (S)-2-(2-aminopropylamino)-4-(3,5-dimethylphenylamino)-6-oxo-1,6-dihydropyrimidine-5-carboxamide] | > 1
Cc1cc(C)cc(Nc2nc(N[C@H](CC(C)C)C(N)=O)[nH]c(=O)c2C(N)=O)c1 [Example 55, (R)-2-(1-amino-4-methyl-1-oxopentan-2-ylamino)-4-(3,5-dimethylphenylamino)-6-oxo-1,6-dihydropyrimidine-5-carboxamide] | > 1
Cc1cc(C)cc(Nc2nc(N[C@H](C)C(N)=O)[nH]c(=O)c2C(N)=O)c1 [Example 56, (R)-2-(1-amino-1-oxopropan-2-ylamino)-4-(3,5-dimethylphenylamino)-6-oxo-1,6-dihydropyrimidine-5-carboxamide] | > 1
CC(=O)N(C)c1ccc(Nc2nc(NC3CC3)c(C(N)=O)c(=O)[nH]2)cc1 [Example 58, 4-(cyclopropylamino)-2-(4-(N-methylacetamido)phenylamino)-6-oxo-1,6-dihydropyrimidine-5-carboxamide] | > 1
CC(=O)N1CCN(c2ccc(Nc3nc(Nc4cc(C)cc(C)c4)c(C(N)=O)c(=O)[nH]3)cc2)CC1 [Example 59, 2-(4-(4-acetylpiperazin-1-yl)phenylamino)-4-(3,5-dimethylphenylamino)-6-oxo-1,6-dihydropyrimidine-5-carboxamide] | > 1
Cc1cc(C)cc(Nc2nc(NC3CC3)[nH]c(=O)c2C(N)=O)c1 [Example 60, 2-(cyclopropylamino)-4-(3,5-dimethylphenylamino)-6-oxo-1,6-dihydropyrimidine-5-carboxamide] | > 1

The next lines start with the values.

IC50 [µM] | Compound
0.01 to 0.1 | CC(C)[C@@H](Nc1nc(Nc2cccc(-c3ncccn3)c2)c(C(N)=O)c(=O)[nH]1)C(N)=O [Example 28, (R)-2-(1-amino-3-methyl-1-oxobutan-2-ylamino)-6-oxo-4-(3-(pyrimidin-2-yl)phenylamino)-1,6-dihydropyrimidine-5-carboxamide]
< 0.001 | CC(C)C[C@@H](Nc1nc(Nc2ccc3ncsc3c2)c(C(N)=O)c(=O)[nH]1)C(N)=O [Example 29]
< 0.001 | CC(C)[C@@H](Nc1nc(Nc2ccc3ncsc3c2)c(C(N)=O)c(=O)[nH]1)C(N)=O [Example 30]
< 0.001 | CC[C@@H](Nc1nc(Nc2ccc3ncsc3c2)c(C(N)=O)c(=O)[nH]1)C(N)=O [Example 31]
0.001 to 0.01 | CC(C)C[C@@H](Nc1nc(Nc2cccc(-n3cccn3)c2)c(C(N)=O)c(=O)[nH]1)C(N)=O [Example 32]
0.001 to 0.01 | CC(C)[C@@H](Nc1nc(Nc2cccc(-n3cccn3)c2)c(C(N)=O)c(=O)[nH]1)C(N)=O [Example 33]
0.001 to 0.01 | CC[C@@H](Nc1nc(Nc2cccc(-n3cccn3)c2)c(C(N)=O)c(=O)[nH]1)C(N)=O [Example 34]
< 0.001 | CC(C)C[C@@H](Nc1nc(Nc2ccc3cn[nH]c3c2)c(C(N)=O)c(=O)[nH]1)C(N)=O [Example 35, (R)-4-(1H-indazol-6-ylamino)-2-(1-amino-4-methyl-1-oxopentan-2-ylamino)-6-oxo-1,6-dihydropyrimidine-5-carboxamide]
< 0.001 | CC[C@@H](Nc1nc(Nc2ccc3cn[nH]c3c2)c(C(N)=O)c(=O)[nH]1)C(N)=O [Example 36]
< 0.001 | NC(=O)c1c(Nc2cccc(-n3nccn3)c2)nc(N[C@@H]2CCCNC2)[nH]c1=O [Example 37]
0.001 to 0.01 | NC(=O)c1c(Nc2cccc(-c3ncccn3)c2)nc(N[C@@H]2CCCC[C@@H]2N)[nH]c1=O [Example 38]
0.001 to 0.01 | CC[C@@H](Nc1nc(Nc2cccc(OC)c2)c(C(N)=O)c(=O)[nH]1)C(N)=O [Example 39, (R)-2-(1-amino-1-oxobutan-2-ylamino)-4-(3-(methoxy)phenylamino)-6-oxo-1,6-dihydropyrimidine-5-carboxamide]
0.001 to 0.01 | CC(C)C[C@@H](Nc1nc(Nc2cccc(-c3ccccn3)c2)c(C(N)=O)c(=O)[nH]1)C(N)=O [Example 40, (R)-2-(1-amino-4-methyl-1-oxopentan-2-ylamino)-6-oxo-4-(3-(pyridin-2-yl)phenylamino)-1,6-dihydropyrimidine-5-carboxamide]
0.001 to 0.01 | CC[C@@H](Nc1nc(Nc2cccc(-c3ccccn3)c2)c(C(N)=O)c(=O)[nH]1)C(N)=O [Example 41, (R)-2-(1-amino-1-oxobutan-2-ylamino)-6-oxo-4-(3-(pyridin-2-yl)phenylamino)-1,6-dihydropyrimidine-5-carboxamide]
0.01 to 0.1 | NC(=O)c1c(Nc2ccc(S(N)(=O)=O)cc2)nc(NC2CC2)[nH]c1=O [Example 42, 2-(cyclopropylamino)-6-oxo-4-(4-sulfamoylphenylamino)-1,6-dihydropyrimidine-5-carboxamide]
> 1 | CC(=O)N(C)c1ccc(Nc2nc(NC3CC3)[nH]c(=O)c2C(N)=O)cc1 [Example 43, 2-(cyclopropylamino)-4-(4-(N-methylacetamido)phenylamino)-6-oxo-1,6-dihydropyrimidine-5-carboxamide]
0.01 to 0.1 | Cc1cc(C)cc(Nc2nc(NCC(N)=O)[nH]c(=O)c2C(N)=O)c1 [Example 49, 2-(2-amino-2-oxoethylamino)-4-(3,5-dimethylphenylamino)-6-oxo-1,6-dihydropyrimidine-5-carboxamide]
0.1 to 1 | COc1nc(NCC(N)=O)nc(Nc2cc(C)cc(C)c2)c1C(N)=O [Example 50, 2-(2-amino-2-oxoethylamino)-4-(3,5-dimethylphenylamino)-6-methoxypyrimidine-5-carboxamide]
0.001 to 0.01 | C[C@H](N)CNc1nc(Nc2ccc3ncccc3c2)c(C(N)=O)c(=O)[nH]1 [Example 51, (S)-2-(2-aminopropylamino)-6-oxo-4-(quinolin-6-ylamino)-1,6-dihydropyrimidine-5-carboxamide]
0.1 to 1 | Cc1cc(C)cc(Nc2nc(NC3CCCCC3N)[nH]c(=O)c2C(N)=O)c1 (stereo not drawn) [Example 57, 2-(2-aminocyclohexylamino)-4-(3,5-dimethylphenylamino)-6-oxo-1,6-dihydropyrimidine-5-carboxamide]
